Key:
[1] = target: GDP-bound NRAS wild-type protein (Homo sapiens, UniProt P01111); test: Binding to NRAS by surface plasmon resonance (SPR), Single Cycle Kinetics; settings: SPR, GDP-bound NRAS wild-type vs GDP-bound KRAS wild-type
[2] = target: GDP-bound HRAS wild-type protein (Homo sapiens, UniProt P01112); test: Binding to HRAS by surface plasmon resonance (SPR), Single Cycle Kinetics; settings: SPR, GDP-bound HRAS wild-type vs GDP-bound KRAS wild-type
GDP-bound HRAS wild-type protein, sequence (P01112 whole entry): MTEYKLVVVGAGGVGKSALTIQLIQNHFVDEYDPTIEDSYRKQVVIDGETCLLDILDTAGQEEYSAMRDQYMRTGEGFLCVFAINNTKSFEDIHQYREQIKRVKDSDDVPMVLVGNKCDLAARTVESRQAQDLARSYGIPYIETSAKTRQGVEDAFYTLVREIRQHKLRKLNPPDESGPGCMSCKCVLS

GDP-bound NRAS wild-type protein, sequence (P01111 whole entry): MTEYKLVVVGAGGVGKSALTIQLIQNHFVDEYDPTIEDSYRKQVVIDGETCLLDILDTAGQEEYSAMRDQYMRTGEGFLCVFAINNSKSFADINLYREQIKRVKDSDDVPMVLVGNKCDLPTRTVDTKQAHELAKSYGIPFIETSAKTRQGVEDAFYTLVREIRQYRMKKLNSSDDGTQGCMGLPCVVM

| SMILES | NRAS/KRAS (ratio of KD value with respect to NRAS to KD value with respect to KRAS) [1] | HRAS/KRAS (ratio of KD value with respect to HRAS to KD value with respect to KRAS) [2] |
| --- | --- | --- |
| CCC[C@H]1C(=O)N[C@@H]([C@@H](C)CC)C(=O)N(C2CC2)CC(=O)N(C)[C@H]2C/C=C\CCN(C2=O)[C@@H](CC2CCC(F)(F)CC2)C(=O)N(C)CC(=O)N[C@@H](CCc2ccc(C(F)(F)F)c(OC)c2)C(=O)N2C[C@@H](C)C[C@H]2C(=O)N(C)C2(CCC2)C(=O)N(C)[C@@H](C2CCCC2)C(=O)N(C)[C@H](C(=O)N(C)C)CC(=O)N1C [PP2378] | B (a compound having 3 or more and less than 10 is denoted as B) | A (a compound having 10 or more and less than 20 is denoted as A) |
| CCCOC[C@H]1C(=O)N[C@@H]([C@@H](C)CC)C(=O)N(C2CC2)CC(=O)N(C)[C@H]2C/C=C\CCN(C2=O)[C@@H](CC2CCC(F)(F)CC2)C(=O)N(C)CC(=O)N[C@@H](CCc2ccc(C(F)(F)F)c(OC)c2)C(=O)N2C[C@@H](C)C[C@H]2C(=O)N(C)C2(CCC2)C(=O)N(C)[C@@H](C2CCCC2)C(=O)N(C)[C@H](C(=O)N(C)C)CC(=O)N1C [PP2379] | A (a compound having 10 or more and less than 20 is denoted as A) | A (a compound having 10 or more and less than 20 is denoted as A) |
| CCC[C@H]1C(=O)N[C@@H]([C@@H](C)CC)C(=O)N2CCC[C@H]2C(=O)N(C)[C@H]2C/C=C\CCN(C2=O)[C@@H](CC2CCC(F)(F)CC2)C(=O)N(C)CC(=O)N[C@@H](CCc2ccc(C(F)(F)F)c(OC)c2)C(=O)N2C[C@@H](C)C[C@H]2C(=O)N(C)C2(CCC2)C(=O)N(C)[C@@H](C2CCCC2)C(=O)N(C)[C@H](C(=O)N(C)C)CC(=O)N1C [PP2380] | A (a compound having 10 or more and less than 20 is denoted as A) | A (a compound having 10 or more and less than 20 is denoted as A) |
| CCCOC[C@H]1C(=O)N[C@@H]([C@@H](C)CC)C(=O)N2CCC[C@H]2C(=O)N(C)[C@H]2C/C=C\CCN(C2=O)[C@@H](CC2CCC(F)(F)CC2)C(=O)N(C)CC(=O)N[C@@H](CCc2ccc(C(F)(F)F)c(OC)c2)C(=O)N2C[C@@H](C)C[C@H]2C(=O)N(C)C2(CCC2)C(=O)N(C)[C@@H](C2CCCC2)C(=O)N(C)[C@H](C(=O)N(C)C)CC(=O)N1C [PP2381] | A (a compound having 10 or more and less than 20 is denoted as A) | A (a compound having 10 or more and less than 20 is denoted as A) |
| CCC[C@H]1C(=O)N[C@@H]([C@@H](C)CC)C(=O)N(C)CC(=O)N(C)[C@H]2C/C=C\CCN(C2=O)[C@@H](Cc2ccc(C(F)(F)F)cc2)C(=O)N(C)CC(=O)N[C@@H](CCc2ccc(C(F)(F)F)c(OC)c2)C(=O)N2C[C@H](OCC)C[C@H]2C(=O)N(C)C2(CCC2)C(=O)N(C)[C@@H](C(CC)CC)C(=O)N(C)[C@H](C(=O)N(C)C)CC(=O)N1C [PP2382] | A (a compound having 10 or more and less than 20 is denoted as A) | A (a compound having 10 or more and less than 20 is denoted as A) |
| CCOC[C@H]1C(=O)N[C@@H]([C@@H](C)CC)C(=O)N(C)CC(=O)N(C)[C@H]2C/C=C\CCN(C2=O)[C@@H](Cc2ccc(C(F)(F)F)cc2)C(=O)N(C)CC(=O)N[C@@H](CCc2ccc(C(F)(F)F)c(OC)c2)C(=O)N2C[C@H](OCC)C[C@H]2C(=O)N(C)C2(CCC2)C(=O)N(C)[C@@H](C(CC)CC)C(=O)N(C)[C@H](C(=O)N(C)C)CC(=O)N1C [PP2383] | A (a compound having 10 or more and less than 20 is denoted as A) | A (a compound having 10 or more and less than 20 is denoted as A) |
| CC[C@H](C)[C@@H]1NC(=O)[C@H](COC)N(C)C(=O)C[C@@H](C(=O)N(C)C)N(C)C(=O)[C@H](C2CCCC2)N(C)C(=O)C2(CC(C)(C)C2)NC(=O)[C@@H]2C[C@H](C)CN2C(=O)[C@H](CCc2ccc(C(F)(F)F)c(OC)c2)NC(=O)CN(C)C(=O)[C@H](Cc2ccc(C)cc2)N2CC/C=C\C[C@@H](C2=O)N(C)C(=O)CN(C)C1=O [PP2385] | A (a compound having 10 or more and less than 20 is denoted as A) | B (a compound having 3 or more and less than 10 is denoted as B) |
| CC[C@H](C)[C@@H]1NC(=O)[C@H](COC)N(C)C(=O)C[C@@H](C(=O)N(C)C)N(C)C(=O)[C@H](C2CCCC2)N(C)C(=O)C2(CC(C)(C)C2)NC(=O)[C@@H]2C[C@H](C)CN2C(=O)[C@H](CCc2ccc(C(F)(F)F)c(OC)c2)NC(=O)CN(C)C(=O)[C@H](Cc2ccc(C)cc2)N2CC/C=C\C[C@@H](C2=O)N(C)C(=O)[C@@H]2C[C@H](C)CN2C1=O [PP2386] | A (a compound having 10 or more and less than 20 is denoted as A) | B (a compound having 3 or more and less than 10 is denoted as B) |
| CC[C@H](C)[C@@H]1NC(=O)[C@H](COC)N(C)C(=O)C[C@@H](C(=O)N(C)C)N(C)C(=O)[C@H](C2CCCC2)N(C)C(=O)C2(CC(C)(C)C2)NC(=O)[C@@H]2C[C@@H](C)CN2C(=O)[C@H](CCc2ccc(C(F)(F)F)c(OC)c2)NC(=O)CN(C)C(=O)[C@H](Cc2ccc(C)cc2)N2CC/C=C\C[C@@H](C2=O)N(C)C(=O)CN(C)C1=O [PP2387] | A (a compound having 10 or more and less than 20 is denoted as A) | A (a compound having 10 or more and less than 20 is denoted as A) |
| CCC[C@H]1C(=O)N[C@@H]([C@@H](C)CC)C(=O)N2C[C@@H](OC)C[C@H]2C(=O)N(C)[C@H]2C/C=C\CCN(C2=O)[C@@H](Cc2ccc(C)cc2)C(=O)N(C)CC(=O)N[C@@H](CCc2ccc(C(F)(F)F)c(OC)c2)C(=O)N2C[C@@H](C)C[C@H]2C(=O)NC2(CC(C)(C)C2)C(=O)N(C)[C@@H](C2CCCC2)C(=O)N(C)[C@H](C(=O)N(C)C)CC(=O)N1C [PP2388] | A (a compound having 10 or more and less than 20 is denoted as A) | B (a compound having 3 or more and less than 10 is denoted as B) |
| CCO[C@@H]1C[C@H]2C(=O)NC3(CC(C)(C)C3)C(=O)N(C)[C@@H](C3CCCC3)C(=O)N(C)[C@H](C(=O)N(C)C)CC(=O)N(C)[C@@H](COC)C(=O)N[C@@H]([C@@H](C)CC)C(=O)N(C)CC(=O)N(C)[C@H]3C/C=C\CCN(C3=O)[C@@H](Cc3ccc(C)cc3)C(=O)N(C)CC(=O)N[C@@H](CCc3ccc(C(F)(F)F)c(Cl)c3)C(=O)N2C1 [PP2389] | A (a compound having 10 or more and less than 20 is denoted as A) | B (a compound having 3 or more and less than 10 is denoted as B) |
| CC[C@H](C)[C@@H]1NC(=O)[C@H](COC)N(C)C(=O)C[C@@H](C(=O)N(C)C)N(C)C(=O)[C@H](C2CCCC2)N(C)C(=O)C2(CC(C)(C)C2)NC(=O)[C@@H]2C[C@H](C)CN2C(=O)[C@H](CCc2ccc(C(F)(F)F)c(OC)c2)NC(=O)CN(C)C(=O)[C@H](Cc2ccc(C)cc2)N2CC/C=C\C[C@@H](C2=O)N(C)C(=O)[C@@H]2C[C@H](OC)CN2C1=O [PP2390] | A (a compound having 10 or more and less than 20 is denoted as A) | B (a compound having 3 or more and less than 10 is denoted as B) |
| CCO[C@@H]1C[C@H]2C(=O)NC3(CC(C)(C)C3)C(=O)N(C)[C@@H](C3CCCC3)C(=O)N(C)[C@H](C(=O)N(C)C)CC(=O)N(C)[C@@H](COC)C(=O)N[C@@H]([C@@H](C)CC)C(=O)N(C)CC(=O)N(C)[C@H]3C/C=C\CCN(C3=O)[C@@H](Cc3ccc(C)cc3)C(=O)N(C)CC(=O)N[C@@H](CCc3cc(F)c(C(F)(F)F)c(F)c3)C(=O)N2C1 [PP2391] | A (a compound having 10 or more and less than 20 is denoted as A) | A (a compound having 10 or more and less than 20 is denoted as A) |
| CCO[C@@H]1C[C@H]2C(=O)NC3(CC(C)(C)C3)C(=O)N(C)[C@@H](C3CCCC3)C(=O)N(C)[C@H](C(=O)N(C)CC)CC(=O)N(C)[C@@H](COC)C(=O)N[C@@H]([C@@H](C)CC)C(=O)N(C)CC(=O)N(C)[C@H]3C/C=C\CCN(C3=O)[C@@H](Cc3ccc(C)cc3)C(=O)N(C)CC(=O)N[C@@H](CCc3ccc(C(F)(F)F)c(OC)c3)C(=O)N2C1 [PP2392] | A (a compound having 10 or more and less than 20 is denoted as A) | A (a compound having 10 or more and less than 20 is denoted as A) |
| CCOC[C@H]1C(=O)N[C@@H]([C@@H](C)CC)C(=O)N(C)CC(=O)N(C)[C@H]2C/C=C\CCN(C2=O)[C@@H](Cc2ccc(C)cc2)C(=O)N(C)CC(=O)N[C@@H](CCc2ccc(C(F)(F)F)c(OC)c2)C(=O)N2C[C@H](C)C[C@H]2C(=O)NC2(CC(C)(C)C2)C(=O)N(C)[C@@H](C2CCCC2)C(=O)N(C)[C@H](C(=O)N(C)C)CC(=O)N1C [PP2393] | A (a compound having 10 or more and less than 20 is denoted as A) | A (a compound having 10 or more and less than 20 is denoted as A) |
| CCOC[C@H]1C(=O)N[C@@H]([C@@H](C)CC)C(=O)N(C)CC(=O)N(C)[C@H]2C/C=C\CCN(C2=O)[C@@H](Cc2ccc(C)cc2)C(=O)N(C)CC(=O)N[C@@H](CCc2ccc(C(F)(F)F)c(Cl)c2)C(=O)N2C[C@@H](C)C[C@H]2C(=O)NC2(CC(C)(C)C2)C(=O)N(C)[C@@H](C2CCCC2)C(=O)N(C)[C@H](C(=O)N(C)C)CC(=O)N1C [PP2394] | A (a compound having 10 or more and less than 20 is denoted as A) | B (a compound having 3 or more and less than 10 is denoted as B) |

— US20250230193A1, “CYCLIC COMPOUND HAVING SELECTIVE KRAS INHIBITORY EFFECT ON HRAS AND NRAS” (CHUGAI SEIYAKU KABUSHIKI KAISHA, priority 2022, published 2025)
